Laboratory results: ChEMBL document CHEMBL3727348, “3-(aryl or heteroaryl) methyleneindolin-2-one derivatives as inhibitors of cancer stem cell pathway kinases for the treatment of cancer” (2014)

How the values were obtained:
Type in all cases: functional, cell-based
FaDu [1] = experiment: Cytotoxic activity against human FADU bulk cells incubated for 72 hrs by Cell-titer-Glo luminescence assay
FaDu [2] = experiment: Cytotoxic activity against human FADU cancer stem cells incubated for 72 hrs by Cell-titer-Glo luminescence assay
ACHN = experiment: Cytotoxic activity against human ACHN bulk cells incubated for 72 hrs by Cell-titer-Glo luminescence assay
A549 [3] = experiment: Cytotoxic activity against human A549 bulk cells incubated for 72 hrs by Cell-titer-Glo luminescence assay; conditions: A549, 72 h
A549 [4] = experiment: Cytotoxic activity against human A549 cancer stem cells incubated for 72 hrs by Cell-titer-Glo luminescence assay; conditions: A549, 72 h

What does the source list for CCN(CC)CCNC(=O)c1c(C)[nH]c(/C=C2\C(=O)Nc3cnc(-c4csc(-c5ccccc5)n4)cc32)c1C?
IC50 (FaDu [1]): 11.2 µM; IC50 (FaDu [2]): 4.75 µM

With Cc1cc(C)c(/C=C2\C(=O)Nc3ccc(-c4ccc(C(=O)c5ccccc5)cc4)cc32)[nH]1 as the compound, how does the IC50 (FaDu [1]) read?
Its IC50 is 22.4 µM.

What about the IC50 (ACHN) of the same compound?
The IC50 was 21.8 µM.

COC(=O)c1c(C)[nH]c(/C=C2\C(=O)Nc3ccc(-c4csc(-c5ccccc5)n4)cc32)c1C was tested. Which IC50 (FaDu [1]) did it give?
Its IC50 is 21.8 µM.

What about the IC50 (A549 [3]) of the same compound?
The IC50 was 16.3 µM.

And the IC50 (ACHN)?
Its IC50 is 1.16 µM.

With CC(=O)N1CCC(N2CCC(c3ccc4c(c3)/C(=C/c3[nH]c(C)c(C(=O)N5CCN(C)CC5)c3C)C(=O)N4)CC2)CC1 as the compound, how does the IC50 (FaDu [1]) read?
Its IC50 is 23.2 µM.

What about the IC50 (FaDu [2]) of the same compound?
The IC50 was 15.6 µM.

With Cc1cc(C)c(/C=C2\C(=O)Nc3cc(-c4ccc5ccccc5n4)ccc32)[nH]1 as the compound, how does the IC50 (FaDu [1]) read?
The IC50 was 14 µM.

Which IC50 (FaDu [2]) does the source give for Cc1[nH]c(/C=C2\C(=O)Nc3ccc(-c4cnn(-c5ccccc5)c4C)cc32)c(C)c1C(=O)N1CCN(C)CC1 here?
Its IC50 is 14.8 µM.

O=C1Nc2ccc(-c3csc(-c4ccccc4)n3)cc2/C1=C/c1ccc(N2CCOCC2)cc1 was tested. Which IC50 (FaDu [1]) did it give?
The IC50 was 35.5 µM.

Which results are given for Cc1cc(C)c(/C=C2\C(=O)Nc3cc(-c4ccncc4)ccc32)[nH]1?
IC50 (FaDu [1]): 18.4 µM; IC50 (A549 [4]): 980 nM

Cc1[nH]c(/C=C2\C(=O)Nc3ccc(-c4cnn(-c5ccccn5)c4)cc32)c(C)c1C(=O)N1CCOCC1 was tested. Which IC50 (FaDu [2]) did it give?
Its IC50 is 8.94 µM.

With CCN(CC)CCNC(=O)c1c(C)[nH]c(/C=C2\C(=O)Nc3ccc(-c4csc(-c5ccc(Br)cc5)n4)cc32)c1C as the compound, how does the IC50 (FaDu [1]) read?
The IC50 was 3.68 µM.

And the IC50 (FaDu [2])?
The IC50 was 1.33 µM.

With CCN(CC)CCNC(=O)c1c(C)[nH]c(/C=C2\C(=O)Nc3ccc(-n4cc(-c5ccccc5)nn4)cc32)c1C as the compound, how does the IC50 (FaDu [1]) read?
Its IC50 is 6.58 µM.

And the IC50 (FaDu [2])?
The IC50 was 3 µM.

What about the IC50 (ACHN) of the same compound?
The IC50 was 7.16 µM.

Which results are given for CCN(CC)CCNC(=O)c1c(C)[nH]c(/C=C2\C(=O)Nc3ccc(-c4cs/c(=N\c5ccccc5)n4C)cc32)c1C?
IC50 (FaDu [1]): 5.35 µM; IC50 (FaDu [2]): 2.17 µM

What does the source list for CCN(CC)CCNC(=O)c1c(C)[nH]c(/C=C2\C(=O)Nc3ccc(-c4cn(-c5ccccc5)nn4)cc32)c1C?
IC50 (FaDu [1]): 6.74 µM; IC50 (A549 [3]): 4.88 µM; IC50 (FaDu [2]): 2.9 µM; IC50 (ACHN): 4.73 µM

Which IC50 (FaDu [2]) does the source give for Cc1[nH]c(/C=C2\C(=O)Nc3ccc(-c4csc(C5CCNCC5)n4)cc32)c(C)c1C(=O)O here?
The IC50 was 5.62 µM.

What does the source list for CCN(CC)CCNC(=O)c1c(C)[nH]c(/C=C2\C(=O)Nc3ccc(-c4nc(-c5ccccc5)n[nH]4)cc32)c1C?
IC50 (FaDu [1]): 6.16 µM; IC50 (FaDu [2]): 2.8 µM

Cc1cc(C)c(/C=C2\C(=O)Nc3cc(-c4cnc5ccnn5c4)ccc32)[nH]1 was tested. Which IC50 (FaDu [2]) did it give?
Its IC50 is 14.9 µM.

CCN(CC)CCNC(=O)c1c(C)[nH]c(/C=C2\C(=O)Nc3ccc(-c4ccnn4-c4ccc(C#N)cc4)cc32)c1C was tested. Which IC50 (FaDu [1]) did it give?
The IC50 was 17.3 µM.

And the IC50 (FaDu [2])?
The IC50 was 4.96 µM.

With Cc1cc(C)c(/C=C2\C(=O)Nc3ccc(-c4cncnc4)cc32)[nH]1 as the compound, how does the IC50 (A549 [3]) read?
Its IC50 is 20.8 µM.

And the IC50 (ACHN)?
Its IC50 is 12.8 µM.

CCOC(=O)c1c(C)[nH]c(/C=C2\C(=O)Nc3ccc(-c4csc(-c5ccccc5)n4)cc32)c1C was tested. Which IC50 (FaDu [2]) did it give?
The IC50 was 20.2 µM.

How did the IC50 (FaDu [2]) turn out when O=C1Nc2ccc(-c3csc(-c4ccncc4)n3)cc2/C1=C/c1cc2ccccc2[nH]1 was run?
The IC50 was 3.07 µM.

How did the IC50 (FaDu [1]) turn out when COc1cccnc1-c1ccc2c(c1)/C(=C/c1[nH]c(C)cc1C)C(=O)N2 was run?
The IC50 was 33.2 µM.

Cc1[nH]c(/C=C2\C(=O)Nc3ncc(-c4csc(-c5ccccc5)n4)cc32)c(C)c1C(=O)N1CCN(C)CC1 was tested. Which IC50 (FaDu [1]) did it give?
Its IC50 is 39.2 µM.

With Cc1cc(C)c(/C=C2\C(=O)Nc3ccc(-c4ccc5ccccc5n4)cc32)[nH]1 as the compound, how does the IC50 (ACHN) read?
Its IC50 is 7.44 µM.

Which results are given for O=C1Nc2ccc(-c3csc(-c4ccccc4)n3)cc2/C1=C/c1ccc(N2CCNCC2)cc1?
IC50 (FaDu [1]): 2.59 µM; IC50 (A549 [3]): 5.79 µM

CCN(CC)CCNC(=O)c1c(C)[nH]c(/C=C2\C(=O)Nc3ccc(C4CCN(C5CCN(C(C)=O)CC5)CC4)cc32)c1C was tested. Which IC50 (FaDu [1]) did it give?
The IC50 was 3.32 µM.

And the IC50 (A549 [3])?
Its IC50 is 29.6 µM.

And the IC50 (FaDu [2])?
The IC50 was 1 µM.

And the IC50 (ACHN)?
The IC50 was 4.8 µM.

Cc1[nH]c(/C=C2\C(=O)Nc3ccc(-c4csc(-c5ccncc5)n4)cc32)c(C)c1CCC(=O)O was tested. Which IC50 (ACHN) did it give?
The IC50 was 14.6 µM.

Which IC50 (FaDu [1]) does the source give for Cc1[nH]c(/C=C2\C(=O)Nc3ccc(-c4ccc(-c5ccccc5)s4)cc32)c(C)c1C(=O)NCCN1CCCC1 here?
The IC50 was 4.44 µM.

What about the IC50 (FaDu [2]) of the same compound?
Its IC50 is 1.64 µM.

Which IC50 (FaDu [1]) does the source give for CCN(CC)CCNC(=O)c1c(C)[nH]c(/C=C2\C(=O)Nc3ccc(C4CCN(c5ccccc5)CC4)cc32)c1C here?
The IC50 was 1.89 µM.

And the IC50 (A549 [3])?
The IC50 was 16 µM.

What about the IC50 (FaDu [2]) of the same compound?
The IC50 was 1.3 µM.

Which IC50 (FaDu [2]) does the source give for CCN(CC)CCNC(=O)c1c(C)[nH]c(/C=C2\C(=O)Nc3ncc(-c4csc(-c5ccccc5)n4)cc32)c1C here?
The IC50 was 1.6 µM.

Which IC50 (FaDu [1]) does the source give for Cc1cc(C)c(/C=C2\C(=O)Nc3ccc(-c4csc(-c5ccccc5)n4)cc32)[nH]1 here?
The IC50 was 7.87 µM.

What about the IC50 (FaDu [2]) of the same compound?
The IC50 was 6.49 µM.

And the IC50 (ACHN)?
The IC50 was 5.31 µM.

With O=C1Nc2ccc(-c3csc(-c4ccccc4)n3)cc2/C1=C/c1[nH]c(C(=O)O)c2c1CCCC2 as the compound, how does the IC50 (FaDu [2]) read?
Its IC50 is 4.49 µM.

And the IC50 (ACHN)?
Its IC50 is 24.9 µM.

CCN(CC)CCNC(=O)c1c(C)[nH]c(/C=C2\C(=O)Nc3cc(-c4ccc5cc[nH]c(=O)c5c4)ccc32)c1C was tested. Which IC50 (FaDu [1]) did it give?
Its IC50 is 23.9 µM.

CCN(CC)CCNC(=O)c1c(C)[nH]c(/C=C2\C(=O)Nc3ccc(-c4oc(-c5ccccc5)nc4C)cc32)c1C was tested. Which IC50 (FaDu [2]) did it give?
Its IC50 is 18.2 µM.

Which IC50 (FaDu [1]) does the source give for Cc1cc(C)c(/C=C2\C(=O)Nc3ccc(-c4cnc5ccccc5n4)cc32)[nH]1 here?
The IC50 was 25.8 µM.

What about the IC50 (A549 [3]) of the same compound?
Its IC50 is 7.89 µM.

What about the IC50 (FaDu [2]) of the same compound?
The IC50 was 0.09 µM.

And the IC50 (ACHN)?
Its IC50 is 10.6 µM.

Which results are given for O=C1Nc2ccc(-c3csc(-c4ccncc4)n3)cc2/C1=C/c1ccc(N2CCNCC2)cc1?
IC50 (FaDu [1]): 25.2 µM; IC50 (A549 [3]): 8.73 µM
